According to US20100041089A1, “IMPROVED METHOD FOR DETECTING CHEMICAL […]” (priority 2006, published 2010):

System: yeast genes (expressed mRNA)
Test: DNA chip measurement of expressed mRNA of yeast genes after culture with a toxic chemical substance
Format: cell-based, Saccharomyces cerevisiae S288C
Conditions: for level of expressed mRNA in the presence of chemical substance / level in the absence of chemical substance: cultured two hours with the chemical substance; for The level of expressed mRNA in the presence of chemical substance/The level of expressed mRNA in the absence of chemical substance: cultured two hours with substance
Method: Yeast (Saccharomyces cerevisiae S288C (a SUC2mal mel gap2 CUP1)) were cultured at 25° C. on YPD medium (yeast extract 1%, polypeptone 2%, glucose 2%). One of toxic chemical substances was added to the cell at logarithmic growth phase, and the cell was further cultured for two hours. Cell was cultured without any chemical substance in the same condition, and was used as a control. Concentrations of the chemical substances were defined to inhibit the growth of the yeast but not lead to death.
After the completion of cultivation, the culture was centrifuged to collect the cells. To the cells, sodium acetate buffer (50 mM sodium acetate, 10 mM EDTA, 1% SDS) was added, and the mixture was shaken at 65° C. for five minutes, followed by returning to room temperature, and obtaining the supernatant, which procedure was repeated two times. To the supernatant, ½ amount of a solution of phenol/chloroform (1:1) was added, and the mixture was centrifuged to give a supernatant, an equal amount of chloroform was added, and the mixture was centrifuged to give a supernatant. To the supernatant, an equal amount of isopropanol containing 0.3 M sodium acetate was added, and the mixture was allowed to stand at room temperature for 30 minutes, after which the mixture was centrifuged to give sediment of the whole RNAs. Seventy % ethanol was added to the sediment, and the mixture was again centrifuged to give sediment, which was then dried and dissolved in water. mRNA was isolated from the whole RNAs as followings. In view of the fact that a poly A chain is attached to the 3′ terminus of mRNA, a polynucleotide having a poly T structure which was immobilized on the surface of latex beads was used to trap the mRNA, and then the mRNA was washed and eluted with spine column (Oligotex-dT30<Super>mRNA Purification Kit, Takara). Reverse transcription of the mRNA was conducted with a reverse transcriptase (Super Script II Reverse Transcriptase; catalogue No. 18064-014, GibcoBRL) using fluorescence-labeled nucleotides to give cDNAs that were introduced with Cy3-dUTP or Cy5-dUTP during the reverse transcription.
The labeled cDNAs were dissolved in TE buffer (10 mM Tris-HCl/1 mM EDTA, pH 8.0), and the solution was dropped on the DNA chip containing the whole genes of yeast (DNA Chip Research Inc. Japan) so that the cDNAs were hybridized on the DNA chip at 65° C. for over 12 hours. The fluoresces intensity of the DNA chip was read with a scanner, and the ratio relative to the fluorescence intensity resulting from the absence of chemical substance was estimated as the following, which is shown in Tables 1 to 9.
In the Tables, “Intensity” indicated in the rightmost column is a value of the level of expressed mRNA of each gene in control cells as divided by the average level of the expressions of the whole genes. A gene of which mRNA level is lower in control, and is higher in cases of addition of chemical substance, is especially useful in the detection of toxic substances.
Here, when a ratio of an amount of mRNA expressed in the presence of the chemical substance to an amount of mRNA expressed in the absence of the chemical substance is two or more, then it is considered significant.

## [Cl][Cd][Cl] [(2), CdCl2]
Yeast gene YJL097W
  level of expressed mRNA in the presence of chemical substance / level in the absence of chemical substance: 1.1
Yeast gene YJL151C
  The level of expressed mRNA in the presence of chemical substance/The level of expressed mRNA in the absence of chemical substance: 2.4
Yeast gene YJL152W
  The level of expressed mRNA in the presence of chemical substance/The level of expressed mRNA in the absence of chemical substance: 1.5
Yeast gene YJL161W
  The level of expressed mRNA in the presence of chemical substance/The level of expressed mRNA in the absence of chemical substance: 2.2
Yeast gene YJL171C
  The level of expressed mRNA in the presence of chemical substance/The level of expressed mRNA in the absence of chemical substance: 0.7
Yeast gene YJR008W
  The level of expressed mRNA in the presence of chemical substance/The level of expressed mRNA in the absence of chemical substance: 1.5
Yeast gene YJR030C
  level of expressed mRNA in the presence of chemical substance / level in the absence of chemical substance: 4.4
Yeast gene YJR054W
  The level of expressed mRNA in the presence of chemical substance/The level of expressed mRNA in the absence of chemical substance: 0.9
Yeast gene YKL051W
  level of expressed mRNA in the presence of chemical substance / level in the absence of chemical substance: 1.1
Yeast gene YKL071W
  The level of expressed mRNA in the presence of chemical substance/The level of expressed mRNA in the absence of chemical substance: 3.8
Yeast gene YKL086W
  The level of expressed mRNA in the presence of chemical substance/The level of expressed mRNA in the absence of chemical substance: 1.1
Yeast gene YKL097C
  level of expressed mRNA in the presence of chemical substance / level in the absence of chemical substance: 1.6
Yeast gene YKL100C
  level of expressed mRNA in the presence of chemical substance / level in the absence of chemical substance: 1.1
Yeast gene YKL151C
  The level of expressed mRNA in the presence of chemical substance/The level of expressed mRNA in the absence of chemical substance: 3.1
Yeast gene YKL153W
  The level of expressed mRNA in the presence of chemical substance/The level of expressed mRNA in the absence of chemical substance: 1.4
Yeast gene YKL195W
  The level of expressed mRNA in the presence of chemical substance/The level of expressed mRNA in the absence of chemical substance: 0.5
Yeast gene YKR040C
  level of expressed mRNA in the presence of chemical substance / level in the absence of chemical substance: 3.7
Yeast gene YKR091W
  The level of expressed mRNA in the presence of chemical substance/The level of expressed mRNA in the absence of chemical substance: 2.3
Yeast gene YLR054C
  The level of expressed mRNA in the presence of chemical substance/The level of expressed mRNA in the absence of chemical substance: 1.5
Yeast gene YLR149C
  The level of expressed mRNA in the presence of chemical substance/The level of expressed mRNA in the absence of chemical substance: 1.9
Yeast gene YLR152C
  The level of expressed mRNA in the presence of chemical substance/The level of expressed mRNA in the absence of chemical substance: 1.3
Yeast gene YLR194C
  The level of expressed mRNA in the presence of chemical substance/The level of expressed mRNA in the absence of chemical substance: 2.2
Yeast gene YLR226W
  level of expressed mRNA in the presence of chemical substance / level in the absence of chemical substance: 1.8
Yeast gene YLR324W
  The level of expressed mRNA in the presence of chemical substance/The level of expressed mRNA in the absence of chemical substance: 1.2
Yeast gene YLR338W
  level of expressed mRNA in the presence of chemical substance / level in the absence of chemical substance: 1.6
Yeast gene YLR350W
  The level of expressed mRNA in the presence of chemical substance/The level of expressed mRNA in the absence of chemical substance: 1.9
Yeast gene YLR387C
  The level of expressed mRNA in the presence of chemical substance/The level of expressed mRNA in the absence of chemical substance: 1.6
Yeast gene YLR392C
  level of expressed mRNA in the presence of chemical substance / level in the absence of chemical substance: 0.9
Yeast gene YLR415C
  level of expressed mRNA in the presence of chemical substance / level in the absence of chemical substance: 2.4
Yeast gene YLR427W
  level of expressed mRNA in the presence of chemical substance / level in the absence of chemical substance: 1.0
Yeast gene YLR460C
  The level of expressed mRNA in the presence of chemical substance/The level of expressed mRNA in the absence of chemical substance: 2.1
Yeast gene YML013W
  level of expressed mRNA in the presence of chemical substance / level in the absence of chemical substance: 1.0
Yeast gene YML029W
  level of expressed mRNA in the presence of chemical substance / level in the absence of chemical substance: 1.5
Yeast gene YML041C
  level of expressed mRNA in the presence of chemical substance / level in the absence of chemical substance: 1.0
Yeast gene YML079W
  level of expressed mRNA in the presence of chemical substance / level in the absence of chemical substance: 1.7
Yeast gene YML117W
  The level of expressed mRNA in the presence of chemical substance/The level of expressed mRNA in the absence of chemical substance: 2.2
Yeast gene YMR009W
  The level of expressed mRNA in the presence of chemical substance/The level of expressed mRNA in the absence of chemical substance: 1.9
Yeast gene YMR067C
  The level of expressed mRNA in the presence of chemical substance/The level of expressed mRNA in the absence of chemical substance: 0.9
Yeast gene YMR068W
  level of expressed mRNA in the presence of chemical substance / level in the absence of chemical substance: 0.7
Yeast gene YMR071C
  level of expressed mRNA in the presence of chemical substance / level in the absence of chemical substance: 2.0
Yeast gene YMR090W
  The level of expressed mRNA in the presence of chemical substance/The level of expressed mRNA in the absence of chemical substance: 9.5
Yeast gene YMR095C
  The level of expressed mRNA in the presence of chemical substance/The level of expressed mRNA in the absence of chemical substance: 2.0
Yeast gene YMR097C
  The level of expressed mRNA in the presence of chemical substance/The level of expressed mRNA in the absence of chemical substance: 1.0
Yeast gene YMR102C
  The level of expressed mRNA in the presence of chemical substance/The level of expressed mRNA in the absence of chemical substance: 2.9
Yeast gene YMR107W
  The level of expressed mRNA in the presence of chemical substance/The level of expressed mRNA in the absence of chemical substance: 3.9
Yeast gene YMR160W
  level of expressed mRNA in the presence of chemical substance / level in the absence of chemical substance: 1.3
Yeast gene YMR180C
  The level of expressed mRNA in the presence of chemical substance/The level of expressed mRNA in the absence of chemical substance: 0.9
Yeast gene YMR184W
  The level of expressed mRNA in the presence of chemical substance/The level of expressed mRNA in the absence of chemical substance: 5.4
Yeast gene YMR191W
  The level of expressed mRNA in the presence of chemical substance/The level of expressed mRNA in the absence of chemical substance: 2.4
Yeast gene YMR295C
  The level of expressed mRNA in the presence of chemical substance/The level of expressed mRNA in the absence of chemical substance: 1.0
Yeast gene YMR316W
  The level of expressed mRNA in the presence of chemical substance/The level of expressed mRNA in the absence of chemical substance: 2.9
Yeast gene YNL026W
  level of expressed mRNA in the presence of chemical substance / level in the absence of chemical substance: 1.0
Yeast gene YNL044W
  The level of expressed mRNA in the presence of chemical substance/The level of expressed mRNA in the absence of chemical substance: 0.9
